Experimental data from PubChem BioAssay (NCI).
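Cells were grown in 96-well plates and exposed to each compound for 48 hours at five concentrations; endpoints were interpolated linearly between bracketing concentrations, or set to the highest concentration if not reached. GI50 marks 50% less growth. At the TGI there is no net growth.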

What was measured:
Experiment in all cases: NCI anticancer screen, dose series, 48 h
EKVX NSCLC = system: EKVX NSCLC
HCC-2998 colon = system: HCC-2998 colon
HCT-15 colon = system: HCT-15 colon
NCI-H522 lung = system: NCI-H522 lung
RPMI-8226 leukemia = system: RPMI-8226 leukemia
SK-MEL-28 melanoma = system: SK-MEL-28 melanoma
T-47D breast = system: T-47D breast
TK-10 renal = system: TK-10 renal
U251 CNS = system: U251 CNS
SK-MEL-5 melanoma = system: SK-MEL-5 melanoma

Structure (SMILES)	GI50 (EKVX NSCLC) [µM]	TGI (EKVX NSCLC) [µM]	GI50 (HCC-2998 colon) [µM]	TGI (HCC-2998 colon) [µM]	GI50 (HCT-15 colon) [µM]	TGI (HCT-15 colon) [µM]	GI50 (NCI-H522 lung) [µM]	TGI (NCI-H522 lung) [µM]	GI50 (RPMI-8226 leukemia) [µM]	TGI (RPMI-8226 leukemia) [µM]	GI50 (SK-MEL-28 melanoma) [µM]	TGI (SK-MEL-28 melanoma) [µM]	GI50 (T-47D breast) [µM]	TGI (T-47D breast) [µM]	GI50 (TK-10 renal) [µM]	TGI (TK-10 renal) [µM]	GI50 (U251 CNS) [µM]	TGI (U251 CNS) [µM]	GI50 (SK-MEL-5 melanoma) [µM]	TGI (SK-MEL-5 melanoma) [µM]
CC(C)[C@]12O[C@H]1[C@@H]1O[C@]13[C@]1(O[C@H]1C[C@H]1c4c(C(=O)c5ccccc5)oc(OC(=O)c5ccccc5)c4CC[C@@]13C)[C@@H]2O	0.0359	1.11	0.0378	0.355	0.0291	> 100	0.0169	0.0913	< 0.0148	1.06	0.0184	0.0612	0.0281	0.916	0.0282	27.1	0.0863	> 100		
O=[N+]([O-])c1ccc2[nH]cc(-c3c4ccccc4cc4[nH]c5ccc([N+](=O)[O-])cc5c34)c2c1	2.4	8.41	2.33	4.58	1.88	4.49	2.12	6.1	2.27	6.32	1.8	3.71	1.71	4.74	2.59	6.79	2.81	8.41	1.62	2.98
CO/N=C1/c2cc(OC)ccc2-c2c(NOC)nc3ccccc3c21	31.7	> 100	35.6	> 100	32.6	> 100	26.6	> 100	40.6	> 100	85.2	> 100	41.2	> 100	16	39.7	13	25.7	13.9	36
Cc1ccc(/C=C(\C#N)n2nnc3cc(F)c(F)cc32)cc1	3.86	41.2	2.96	11.6	0.651	15.3	0.291	1.12	2.85	8.71	6.79	> 100	1.19	5.39	2.52	11.3	1.48	2.94	3.65	14.2
C=C1C(=O)O[C@H]2[C@H]1CC/C(Cn1cc(CCC)nn1)=C\CC[C@@]1(C)O[C@@H]21	11.5	23.6	15.1	32.9	2.9	12.3	3.06	10.7	5.52	27.1			4.11	21.3	3.86	14.6	14.1	27.7	15.3	29.6
O=Cc1ccc(C(F)(F)F)cc1.[C-]#[O+].[C-]#[O+].[C-]#[O+].[Cr]	16.3	45	53.6	> 100	26.1	82.7	23.7	> 100			63	> 100	14.4	62.4	25.9	> 100	26.8	> 100	12.6	28.3
